According to publication PMC6273769, “Screening of Potential Xanthine Oxidase Inhibitors in Gnaphalium hypoleucum DC. by Immobilized Metal Affinity Chromatography and Ultrafiltration-Ultra Performance Liquid Chromatography-Mass Spectrometry” (Molecules, 2016):
pIC50: −log10 of the molar value. Where two headings read alike, the source gives them in different places.

Assays:
xanthine oxidase [1] = target: T1, xanthine oxidase (Bos taurus, UniProt P80457); assay: XO activity assay (uric acid absorbance at […] nm) with Lineweaver-Burk kinetics (Ki […]); also retained by XO in ultrafiltration UPLC-MS; assay type: biochemical
T1 construct: gene XDH
T1 sequence (P80457 2-1332): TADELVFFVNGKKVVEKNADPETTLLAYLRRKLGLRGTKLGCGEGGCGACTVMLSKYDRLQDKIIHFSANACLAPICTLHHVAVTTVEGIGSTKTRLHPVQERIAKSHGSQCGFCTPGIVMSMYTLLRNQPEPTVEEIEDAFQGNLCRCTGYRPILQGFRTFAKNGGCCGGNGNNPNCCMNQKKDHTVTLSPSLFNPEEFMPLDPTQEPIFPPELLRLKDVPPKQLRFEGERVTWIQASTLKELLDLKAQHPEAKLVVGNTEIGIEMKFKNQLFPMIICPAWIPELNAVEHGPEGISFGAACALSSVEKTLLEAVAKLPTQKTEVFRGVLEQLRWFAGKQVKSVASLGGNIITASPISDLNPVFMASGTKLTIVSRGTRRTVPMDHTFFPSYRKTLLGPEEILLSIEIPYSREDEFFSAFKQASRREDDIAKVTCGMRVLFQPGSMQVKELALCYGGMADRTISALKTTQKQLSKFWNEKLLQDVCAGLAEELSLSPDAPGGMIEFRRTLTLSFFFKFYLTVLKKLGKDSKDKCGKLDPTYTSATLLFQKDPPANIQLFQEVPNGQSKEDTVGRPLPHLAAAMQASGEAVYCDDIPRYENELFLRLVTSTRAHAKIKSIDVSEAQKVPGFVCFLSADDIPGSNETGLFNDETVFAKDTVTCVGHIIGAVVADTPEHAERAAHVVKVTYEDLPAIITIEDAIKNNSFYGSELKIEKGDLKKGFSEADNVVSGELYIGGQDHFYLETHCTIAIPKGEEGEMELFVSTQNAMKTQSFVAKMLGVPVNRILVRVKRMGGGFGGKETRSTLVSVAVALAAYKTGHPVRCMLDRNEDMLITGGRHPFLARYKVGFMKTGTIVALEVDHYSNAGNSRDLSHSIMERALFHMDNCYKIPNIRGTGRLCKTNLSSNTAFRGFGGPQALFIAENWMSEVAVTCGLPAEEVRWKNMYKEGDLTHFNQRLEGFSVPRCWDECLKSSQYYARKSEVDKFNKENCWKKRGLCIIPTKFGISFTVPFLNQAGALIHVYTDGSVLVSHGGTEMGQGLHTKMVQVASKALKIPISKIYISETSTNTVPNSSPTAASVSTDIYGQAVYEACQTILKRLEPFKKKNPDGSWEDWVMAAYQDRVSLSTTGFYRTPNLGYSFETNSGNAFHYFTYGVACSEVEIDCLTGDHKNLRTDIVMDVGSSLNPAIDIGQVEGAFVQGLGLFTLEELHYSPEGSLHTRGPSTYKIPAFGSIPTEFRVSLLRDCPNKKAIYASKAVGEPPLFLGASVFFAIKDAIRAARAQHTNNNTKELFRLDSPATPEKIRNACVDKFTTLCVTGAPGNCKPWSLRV

xanthine oxidase [2] = target: T1, xanthine oxidase; assay: as above; assay type: biochemical; remark: listed apart in the source

pIC50 (xanthine oxidase [1])	pIC50 (xanthine oxidase [2])	SMILES
6.24		O=c1cc(-c2ccc(O[C@@H]3O[C@H](CO)[C@@H](O)[C@H](O)[C@H]3O)c(O)c2)oc2cc(O)cc(O)c12 [luteolin-4′-O-glucoside]
	5.82	O=c1cc(-c2ccc(O)c(O)c2)oc2cc(O)cc(O)c12 [luteolin]
